From ChEMBL document CHEMBL1201862, “PubChem BioAssay data set” (2004)
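A five-concentration, 48-hour dose response in 96-well plates underlies each endpoint, interpolated linearly between surrounding concentrations. Here, GI50 denotes the concentration required for 50% inhibition of growth.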 Activity calls are given as the source filed them. Cut-off read from the data, not from the text of the source: active = GI50 up to about 1.1 µM and inactive = higher.

Assays:
Assay in all cases: DTP human tumour cell line panel, 48 h
U-251 = test system: U-251
OVCAR-4 = test system: OVCAR-4
PC-3 = test system: PC-3
T47D = test system: T47D
NCI-H460 = test system: NCI-H460
HCT-15 = test system: HCT-15
IGROV-1 = test system: IGROV-1
A549 = test system: A549
RXF 393 = test system: RXF 393
EKVX = test system: EKVX
K562 = test system: K562
SF-295 = test system: SF-295
SK-MEL-28 = test system: SK-MEL-28
SF-539 = test system: SF-539
NCI-H23 = test system: NCI-H23
MDA-MB-231 = test system: MDA-MB-231
SK-MEL-2 = test system: SK-MEL-2
MOLT-4 = test system: MOLT-4
TK-10 = test system: TK-10
A498 = test system: A498

| SMILES | GI50 (U-251) | GI50 (OVCAR-4) | GI50 (PC-3) | GI50 (T47D) | GI50 (NCI-H460) | GI50 (HCT-15) [µM] | GI50 (IGROV-1) | GI50 (A549) | GI50 (RXF 393) | GI50 (EKVX) | GI50 (K562) | GI50 (SF-295) | GI50 (SK-MEL-28) | GI50 (SF-539) | GI50 (NCI-H23) | GI50 (MDA-MB-231) | GI50 (SK-MEL-2) | GI50 (MOLT-4) | GI50 (TK-10) | GI50 (A498) |
| --- | --- | --- | --- | --- | --- | --- | --- | --- | --- | --- | --- | --- | --- | --- | --- | --- | --- | --- | --- | --- |
| O=C(N/N=C/c1ccc([N+](=O)[O-])cc1)Nc1ccc(Br)cc1 | 69.3 µM (inactive) | 49 µM (inactive) | > 100 µM (inactive) | 36.1 µM (inactive) | > 100 µM (inactive) | > 100 | 55.5 µM (inactive) | > 100 µM (inactive) | > 100 µM (inactive) | 99.1 µM (inactive) | 54 µM (inactive) | > 100 µM (inactive) | > 100 µM (inactive) | > 100 µM (inactive) | 47.2 µM (inactive) | > 100 µM (inactive) | > 100 µM (inactive) | 36.4 µM (inactive) | > 100 µM (inactive) | – |
| O=C(Nn1c(-c2ccccc2)nc2ccccc2c1=O)c1ccccn1 | 75.7 µM (inactive) | > 100 µM (inactive) | > 100 µM (inactive) | > 100 µM (inactive) | > 100 µM (inactive) | – | > 100 µM (inactive) | > 100 µM (inactive) | 45.3 µM (inactive) | > 100 µM (inactive) | 78.5 µM (inactive) | 98.9 µM (inactive) | > 100 µM (inactive) | 43.7 µM (inactive) | > 100 µM (inactive) | > 100 µM (inactive) | – | > 100 µM (inactive) | > 100 µM (inactive) | 15.4 µM (inactive) |
| CCc1n[nH]c(=O)n1CCCCCCCCn1c(CC)n[nH]c1=O | > 100 µM (inactive) | > 100 µM (inactive) | > 100 µM (inactive) | > 100 µM (inactive) | > 100 µM (inactive) | > 100 | > 100 µM (inactive) | > 100 µM (inactive) | > 100 µM (inactive) | > 100 µM (inactive) | > 100 µM (inactive) | > 100 µM (inactive) | – | > 100 µM (inactive) | > 100 µM (inactive) | > 100 µM (inactive) | > 100 µM (inactive) | > 100 µM (inactive) | > 100 µM (inactive) | – |
| COc1cc2c3c(n(Cc4ccccc4)c(=O)c2cc1OC)-c1ccccc1C3=O | 64 µM (inactive) | > 100 µM (inactive) | > 100 µM (inactive) | > 100 µM (inactive) | 26.7 µM (inactive) | > 100 | > 100 µM (inactive) | > 100 µM (inactive) | > 100 µM (inactive) | > 100 µM (inactive) | > 100 µM (inactive) | > 100 µM (inactive) | > 100 µM (inactive) | 90.2 µM (inactive) | > 100 µM (inactive) | > 100 µM (inactive) | > 100 µM (inactive) | 20.5 µM (inactive) | > 100 µM (inactive) | – |
| CCO/C=N/C1=C(C#N)C(c2ccc(OC)c(OC)c2)c2c(-c3ccccc3)nn(-c3ccccc3)c2O1 (stereo not given) | 12.7 µM (inactive) | – | 13.6 µM (inactive) | 9.14 µM (inactive) | > 100 µM (inactive) | 5.11 | 3.16 µM (inactive) | 18.3 µM (inactive) | 12.2 µM (inactive) | 16.1 µM (inactive) | 6.68 µM (inactive) | 11.1 µM (inactive) | 15 µM (inactive) | 8.67 µM (inactive) | 15.4 µM (inactive) | 19.2 µM (inactive) | 18.5 µM (inactive) | 8.02 µM (inactive) | – | – |
| O=P(O)(O)c1ccc(-c2ccc(I)cc2)cc1 | > 100 µM (inactive) | > 100 µM (inactive) | > 100 µM (inactive) | > 100 µM (inactive) | > 100 µM (inactive) | > 100 | > 100 µM (inactive) | > 100 µM (inactive) | 13.5 µM (inactive) | > 100 µM (inactive) | > 100 µM (inactive) | > 10 µM (inactive) | > 100 µM (inactive) | > 100 µM (inactive) | > 100 µM (inactive) | > 100 µM (inactive) | > 100 µM (inactive) | > 100 µM (inactive) | > 100 µM (inactive) | – |
| CCn1c(=O)c2nc(SC)sc2n(-c2ccccc2)c1=O | > 100 µM (inactive) | > 100 µM (inactive) | > 100 µM (inactive) | > 100 µM (inactive) | > 100 µM (inactive) | > 100 | > 100 µM (inactive) | > 100 µM (inactive) | > 100 µM (inactive) | – | > 100 µM (inactive) | > 100 µM (inactive) | > 100 µM (inactive) | > 100 µM (inactive) | > 100 µM (inactive) | > 100 µM (inactive) | > 100 µM (inactive) | > 100 µM (inactive) | > 100 µM (inactive) | – |
| COc1ccc(C2CC3(c4ccccc4)ON=C(c4ccccc4)N3c3ccccc3S2)cc1 (stereo not given) | > 100 µM (inactive) | > 100 µM (inactive) | > 100 µM (inactive) | > 100 µM (inactive) | > 100 µM (inactive) | > 100 | > 100 µM (inactive) | > 100 µM (inactive) | > 100 µM (inactive) | > 100 µM (inactive) | – | > 100 µM (inactive) | > 100 µM (inactive) | > 100 µM (inactive) | > 100 µM (inactive) | > 100 µM (inactive) | – | – | > 100 µM (inactive) | > 100 µM (inactive) |
